Laboratory results: article PMC8151276, “An Integrated Approach toward NanoBRET Tracers for Analysis of GPCR Ligand Engagement” (Molecules, 2021)

Experiments:
Assay type in all cases: binding
VIPR1 = molecular target: T1, VIPR1 (Homo sapiens, UniProt P32241); assay: NanoBRET screen HiBiT-VIPR1 in HEK293; settings: VIPR1
T1 construct: purchased Promega (in-house HiBiT-GPCR construct library, NanoBRET)
T1 sequence (P32241 31-457): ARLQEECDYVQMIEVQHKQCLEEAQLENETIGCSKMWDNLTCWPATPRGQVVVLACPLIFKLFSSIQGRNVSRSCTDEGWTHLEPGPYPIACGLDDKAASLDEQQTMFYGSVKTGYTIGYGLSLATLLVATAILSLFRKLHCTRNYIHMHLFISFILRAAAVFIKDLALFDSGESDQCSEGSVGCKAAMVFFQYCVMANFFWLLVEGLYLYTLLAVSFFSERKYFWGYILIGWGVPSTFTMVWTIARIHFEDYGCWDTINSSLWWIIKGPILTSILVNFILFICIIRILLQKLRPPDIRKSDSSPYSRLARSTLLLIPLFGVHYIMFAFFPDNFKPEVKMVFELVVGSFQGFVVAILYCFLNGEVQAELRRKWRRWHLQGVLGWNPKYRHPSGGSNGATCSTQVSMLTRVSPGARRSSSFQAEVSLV
Procedure: (§1) Each tracer candidate was screened across the entire library of HiBiT-GPCR constructs using NanoBRET as the detection modality. As depicted in Figure 4A, the specificity of interactions was evaluated through decrease in BRET due to competitive displacement of a bound tracer by excess parental compound. Each tracer was analyzed for binding to each HiBiT-GPCR fusion in the absence and in the presence of competing parental compound. Briefly, HEK293 cells were transfected with HiBiT-GPCR constructs diluted into promoterless DNA to reduce expression and maximize translocation to the cell surface. Each tracer candidate was then screened at concentrations of 1 μM and 0.1 μM across cells expressing these fusions. Cells were treated for 1.5 h with tracer either alone or in the presence of 20 μM competing parental compound (i.e., control). BRET was measured upon addition of purified LgBiT and subsequent complementation with HiBiT genetically fused to a GPCR. The specificity of interactions was assessed through a decrease in BRET signal due to competitive displacement of the bound tracer. To further gauge the robustness of these interactions, the fold response over the control (i.e., BRETtracer/BRETcontrol) was calculated. We chose a 1.5-fold response, which translates to ≥7-fold signal over noise as the minimal threshold required to score an interaction as positive. […]. Below we highlight the screening results obtained for our exemplary fluorescent tracers based on Clozapine, Amitriptyline and AZD1283.
(§2) HiBiT-GPCR DNA constructs were diluted in 10 mM Tris pH 8 to a final concentration of 0.01 μg/μL, arrayed in 96-well plates and stored at −20 °C. For transfection, HEK293 cells were suspended in Opti-MEM (without phenol red) supplemented with 2% fetal bovine serum (Seradigm) and 100 units/mL penicillin–streptomycin (Gibco) at a final concentration of 220,000 cells/mL and dispensed into white 96-well plates at 90 μL/well. Subsequent transfections and screens were carried using an Agilent Bravo Automated Liquid Handling Platform. First, the 96-well HiBiT DNA arrays were diluted 25-fold in Opti-MEM (without serum or phenol red) to a final concentration of 0.0004 μg/μL and 20 μL of the diluted DNAs were transferred into new 96-well plates. Next, promoterless carrier DNA (1 μg/μL) was diluted 25-fold (0.04 μg/μL) and then dispensed into the diluted arrays at 20 μL/well. Following brief mixing, Viafect transfection reagent (Promega) diluted 16-fold into Opti-MEM was dispensed into the plates at 40 μL/well. After mixing by pipetting, plates were incubated for 10 min on the pipetting station deck. The DNA-transfection reagent complexes were then added to plates containing cells. To facilitate the screen, 10 μL of DNA-transfection reagent complexes were added in duplicates to the top 4 and bottom 4 rows, resulting in two identical 48-well arrays per plate. Plates with transfected cells were incubated for 18–20 h at 37 °C/5% CO2. A screen of each tracer across the entire library using two different concentrations requires duplicate plates of transfected cells. Depending on the number of tracers being screened, transfections can be scaled up using the same ratios. The next day, for each tracer, four 20× screening solutions in tracer dilution buffer (Promega) were prepared: two duplicates at final concentration of 20 μM and two duplicates at a final concentration of 2 μM. A competing unmodified compound was added to one of each duplicate at a final concentration of 400 μM. The four resulting solutions were diluted 4-fold in Opti-MEM without serum or phenol red to generate 5× solutions (5 µM and 0.5 µM tracer +/− 100 μM competing compound). To screen the library, a BioTek MultiFlo FX liquid dispenser was used to dispense 22.5 µL of tracer solution to the top 4 rows and 22.5 µL tracer + competing compound solution to the 4 bottom rows. Plates were briefly mixed on an orbital shaker and incubated for 1.5 h at room temperature. […]

NTSR1 = molecular target: T2, NTSR1 (Homo sapiens, UniProt P30989); assay: NanoBRET screen HiBiT-NTSR1 in HEK293; settings: NTSR1
T2 construct: purchased Promega (in-house HiBiT-GPCR construct library, NanoBRET)
Procedure: as §1, §2

F2RL3 = molecular target: T3, F2RL3 (Homo sapiens, UniProt Q96RI0); assay: NanoBRET screen HiBiT-F2RL3 in HEK293; settings: F2RL3
T3 construct: purchased Promega (in-house HiBiT-GPCR construct library, NanoBRET)
T3 sequence (Q96RI0 18-385): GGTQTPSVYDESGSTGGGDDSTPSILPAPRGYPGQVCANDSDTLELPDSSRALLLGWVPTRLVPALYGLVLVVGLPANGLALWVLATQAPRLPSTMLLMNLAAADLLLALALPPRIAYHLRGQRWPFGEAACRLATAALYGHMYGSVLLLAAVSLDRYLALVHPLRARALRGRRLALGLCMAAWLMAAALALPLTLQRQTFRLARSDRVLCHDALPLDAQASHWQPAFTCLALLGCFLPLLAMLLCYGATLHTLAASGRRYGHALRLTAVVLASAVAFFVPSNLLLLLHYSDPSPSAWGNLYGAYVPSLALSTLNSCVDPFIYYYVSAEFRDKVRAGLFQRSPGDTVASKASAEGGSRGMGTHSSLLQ
Procedure: as §1, §2

T2 sequence (P30989 whole entry): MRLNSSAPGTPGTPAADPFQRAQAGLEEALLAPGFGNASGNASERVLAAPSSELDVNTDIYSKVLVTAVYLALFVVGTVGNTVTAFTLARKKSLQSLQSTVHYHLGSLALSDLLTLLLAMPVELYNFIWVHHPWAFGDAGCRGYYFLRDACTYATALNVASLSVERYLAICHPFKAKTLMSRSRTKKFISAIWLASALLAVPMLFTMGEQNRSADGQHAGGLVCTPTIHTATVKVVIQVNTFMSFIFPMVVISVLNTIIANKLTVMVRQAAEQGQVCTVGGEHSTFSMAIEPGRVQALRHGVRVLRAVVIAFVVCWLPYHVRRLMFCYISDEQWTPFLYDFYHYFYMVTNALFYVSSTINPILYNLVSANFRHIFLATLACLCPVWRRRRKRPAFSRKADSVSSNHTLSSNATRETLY

| Compound | NanoBRET Fold Response (VIPR1; 0.1μM tracer) | NanoBRET Fold Response (VIPR1; 1μM tracer) | NanoBRET Fold Response (NTSR1; 0.1μM tracer) | NanoBRET Fold Response (NTSR1; 1μM tracer) | NanoBRET Fold Response (F2RL3; 0.1μM tracer) | NanoBRET Fold Response (F2RL3; 1μM tracer) | NanoBRET Fold Response (VIPR1; tracer 0.1μM) | NanoBRET Fold Response (VIPR1; tracer 1μM) | NanoBRET Fold Response (NTSR1; tracer 0.1μM) | NanoBRET Fold Response (NTSR1; tracer 1μM) | NanoBRET Fold Response (F2RL3; tracer 0.1μM) | NanoBRET Fold Response (F2RL3; tracer 1μM) |
| --- | --- | --- | --- | --- | --- | --- | --- | --- | --- | --- | --- | --- |
| O=C(CCOCCOCCOCCOCCNC(=O)CCc1ccc2n1[B-](F)(F)[N+]1=C(c3ccc[nH]3)C=CC1=C2)NCCCN1CCN(C2=Nc3cc(Cl)ccc3Nc3ccccc32)CC1 [Clozapine-a-2-NB590] | 0.98 | 1.10 | 0.97 | 1.00 | 1.02 | 1.15 |  |  |  |  |  |  |
| CN1CCN(C2=Nc3cc(Cl)ccc3Nc3ccc(CNC(=O)CCOCCOCCOCCOCCNC(=O)CCc4ccc5n4[B-](F)(F)[N+]4=C(c6ccc[nH]6)C=CC4=C5)cc32)CC1 [Clozapine-b-2-NB590] | 1.12 | 0.99 | 1.00 | 1.01 | 0.99 | 1.05 |  |  |  |  |  |  |
| CN1CCN(C2=Nc3cc(Cl)ccc3N(CC(=O)NCCOCCOCCOCCOCCNC(=O)CCc3ccc4n3[B-](F)(F)[N+]3=C(c5ccc[nH]5)C=CC3=C4)c3ccccc32)CC1 [Clozapine-c-2-NB590] | 0.98 | 1.00 | 1.02 | 1.01 | 1.02 | 0.99 |  |  |  |  |  |  |
| O=C(CCOCCOCCOCCOCCNC(=O)CCc1ccc2n1[B-](F)(F)[N+]1=C(c3ccc[nH]3)C=CC1=C2)NCCCN1CCN(C2=Nc3ccccc3Oc3ccc(Cl)cc32)CC1 [Loxapine-a-2-NB590] |  |  |  |  |  |  | 0.94 | 1.05 | 0.99 | 1.08 | 1.00 | 1.02 |
| COc1ccccc1N1CCN(CCCCN2C(=O)c3ccc(CNC(=O)CCOCCOCCOCCOCCNC(=O)CCc4ccc5n4[B-](F)(F)[N+]4=C(c6ccc[nH]6)C=CC4=C5)cc3C2=O)CC1 [NAN-190-2-NB590] |  |  |  |  |  |  | 1.00 | 1.02 | 0.97 |  | 0.99 | 1.01 |
| COc1ccccc1N1CCN(CCCCN2C(=O)c3ccc(CNC(=O)CCOCCNC(=O)c4ccc(CNC(=O)CCc5ccc6n5[B-](F)(F)[N+]5=C(c7ccc[nH]7)C=CC5=C6)cc4)cc3C2=O)CC1 [NAN-190-3-NB590] |  |  |  |  |  |  | 0.71 | 1.05 | 0.90 | 0.99 | 1.15 | 0.99 |
| O=C(CCc1ccc2n1[B-](F)(F)[N+]1=C(c3ccc[nH]3)C=CC1=C2)NCc1ccc(C(=O)NCCOCCC(=O)N[C@@H]2CC[C@@]3(O)[C@H]4Cc5ccc(O)c6c5[C@@]3(CCN4CC3CC3)[C@H]2O6)cc1 [Naltrexone-3-NB590] |  |  |  |  |  |  | 0.95 | 1.36 | 1.07 | 0.93 | 0.92 | 1.03 |
